Measured values taken from patent US9932621B2, “Modulators for Sirt5 and assays for screening same” (CORNELL UNIVERSITY, priority 2010, dated 2018).
Substitutions are numbered along the chain they refer to. Entries after “also recorded” stand apart in the source; their conditions may differ. Read-outs that look alike come from different tables or passages of the source. *1 amine or outer side, *2 acyl side, *3 side chain or, on linkers, in order; H or OH if unused. Where no end group is shown, it is not given here. The star is where a group is joined. AMC = Cc1cc(=O)oc2cc(N*)ccc12; Suc = O=C(CCC(=O)[*:2])[*:1]

Columns and labels:
[1] = target: T1, Sirt5 (Homo sapiens, UniProt Q9NXA8); test: Sirt5 inhibition IC50 (desuccinylase, HPLC-based assay); type: biochemical; conditions: Sirt5 1 μM, 0.3 mM acyl peptide, 0.5 mM NAD; * = no inhibition at 100 μM
T1 construct: made in house
T1 sequence (Q9NXA8 37-310): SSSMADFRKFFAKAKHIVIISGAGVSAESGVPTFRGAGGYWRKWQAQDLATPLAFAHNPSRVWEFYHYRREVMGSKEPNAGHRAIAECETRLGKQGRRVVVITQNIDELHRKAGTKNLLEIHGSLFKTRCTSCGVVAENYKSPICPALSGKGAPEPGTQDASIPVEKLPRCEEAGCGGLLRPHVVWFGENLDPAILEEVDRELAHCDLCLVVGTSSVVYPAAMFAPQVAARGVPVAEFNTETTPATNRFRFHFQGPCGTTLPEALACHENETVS
Experimental: (§1) All assays were carried out under identical enzyme (1 μM) and substrate (0.3 mM acyl peptide, 0.5 mM NAD) concentrations.

[2] = target: T2, Sirt1 (Homo sapiens, UniProt Q96EB6); conditions: Sirt1, literature value; read-out: IC50, reported value in parentheses; cited from earlier work
T2 sequence (Q96EB6 1-747): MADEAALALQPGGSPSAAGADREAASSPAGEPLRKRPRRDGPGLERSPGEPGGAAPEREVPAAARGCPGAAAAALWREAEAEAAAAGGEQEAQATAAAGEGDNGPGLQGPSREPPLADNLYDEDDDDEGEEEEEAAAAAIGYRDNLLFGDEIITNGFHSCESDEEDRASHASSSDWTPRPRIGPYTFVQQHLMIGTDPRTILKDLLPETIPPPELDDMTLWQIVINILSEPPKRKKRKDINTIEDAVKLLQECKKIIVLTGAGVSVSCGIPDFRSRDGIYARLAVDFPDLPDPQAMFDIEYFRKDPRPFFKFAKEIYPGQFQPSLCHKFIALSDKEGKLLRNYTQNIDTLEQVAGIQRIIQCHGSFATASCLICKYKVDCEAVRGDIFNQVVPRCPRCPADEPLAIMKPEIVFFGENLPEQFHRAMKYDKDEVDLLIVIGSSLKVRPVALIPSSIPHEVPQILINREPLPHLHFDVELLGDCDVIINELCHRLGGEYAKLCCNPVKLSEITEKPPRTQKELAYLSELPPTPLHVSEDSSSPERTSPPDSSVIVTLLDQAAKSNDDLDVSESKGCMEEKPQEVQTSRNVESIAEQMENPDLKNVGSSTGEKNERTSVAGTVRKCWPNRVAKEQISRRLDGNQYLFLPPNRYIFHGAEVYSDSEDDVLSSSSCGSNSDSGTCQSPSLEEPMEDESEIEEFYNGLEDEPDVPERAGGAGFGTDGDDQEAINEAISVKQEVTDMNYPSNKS

[3] = target: T1, Sirt5; test: Sirt5 fluorogenic assay with KQTAR(SuK)-AMC; type: biochemical; conditions: reaction with Sirt5
Experimental: SirT5 (1 μM) was incubated with KQTAR(SuK)-AMC (SEQ ID NO: 10) peptide (0.3 mM), NAD (0.5 mM) in Tris-HCl buffer (pH 7.4, 20 mM) containing dithiothreitol (DTT, 1 mM) in a 60 μL reaction for 16 hours at 37° C. Then trypsin (1 μg) and CaCl2 (1 mM) were added and the reaction were incubated for 14 hours at 37° C. The reactions were diluted with 50 μL water. The mixture (100 μL) was transferred to 96 well plate and the fluorescence was recorded by BIO-TEK® Synergy HT plate reader (Optics Position: Top, Sensitivity: 50, Excitation at the wavelength of 360 nm and Emission at the wavelength of 460 nm).

[4] = target: T1, Sirt5; test: Sirt5-catalyzed desuccinylation of AMC-succinyl peptides monitored by HPLC; type: biochemical
Experimental: […] The reactions were stopped with 200 mM HCl and 320 mM acetic acid, analyzed by HPLC with a reverse phase C18 column (250×4.6 mm, 90 A, 10 μm, GraceVydac, Southborough, Mass.), with a linear gradient of 0% to 20% B for 10 min (1 mL/min).

[5] = target: T1, Sirt5; test: Deacylation kinetics (kcat, Km) by HPLC, Sirt5; type: biochemical; conditions: wild-type Sirt5, Table 3
Experimental: (§2) For determination of kcat and Km, human Sirt1, Sirt2, Sirt3 and Sirt5 were measured by detecting the deacylated peptide from H3K9 acyl peptides using HPLC. Purified Sirtuin was incubated with 1.0 mM of NAD in 20 mM Tris-HCl buffer (pH 7.5) containing acyl peptides (0-750 μM) and 1 mM DTT in 60 μL reactions at 37° C. The reactions were stopped with 100 mM HCl and 160 mM acetic acid, analyzed by HPLC with a reverse phase C18 column (250×4.6 mm, 90 A, 10 μm, GraceVydac, Southborough, Mass.), with a linear gradient of 0% to 20% B for 10 min (1 mL/min). […] The kcat and Km values were obtained by curve-fitting the Vinitial/[E] versus [S] plot using KaleidaGraph. For Sirt5 R105M, the observed second order rate constant, kobs (rate/([Sirtuin][NAD])) was detected instead of kcat and Km because of the very weak deacylation activity. The experiments were done in duplicate.

[6] = target: T3, Sirt5 H158Y (Homo sapiens, UniProt Q9NXA8, H158Y); test: Deacylation kinetics by HPLC, mutant Sirt5 H158Y; type: biochemical; conditions: read-out: Km for peptide
T3 sequence (Q9NXA8 37-310 H158Y): T1 sequence (Q9NXA8 37-310) with H122Y
Experimental: as §2

[7] = target: T4, Sirt5 Y102F (Homo sapiens, UniProt Q9NXA8, Y102F); test: Deacylation kinetics by HPLC, mutant Sirt5 Y102F; type: biochemical; conditions: read-out: Km for peptide
T4 sequence (Q9NXA8 37-310 Y102F): T1 sequence (Q9NXA8 37-310) with Y66F
Experimental: as §2

[8] = target: T5, Sirt5 R105M (Homo sapiens, UniProt Q9NXA8, R105M); test: Deacylation kinetics by HPLC, mutant Sirt5 R105M; type: biochemical; conditions: read-out: Km for peptide
T5 sequence (Q9NXA8 37-310 R105M): T1 sequence (Q9NXA8 37-310) with R69M
Experimental: For determination of kcat and Km, human Sirt1, Sirt2, Sirt3 and Sirt5 were measured by detecting the deacylated peptide from H3K9 acyl peptides using HPLC. […] The reactions were stopped with 100 mM HCl and 160 mM acetic acid, analyzed by HPLC with a reverse phase C18 column (250×4.6 mm, 90 A, 10 μm, GraceVydac, Southborough, Mass.), with a linear gradient of 0% to 20% B for 10 min (1 mL/min). […] The kcat and Km values were obtained by curve-fitting the Vinitial/[E] versus [S] plot using KaleidaGraph. […] The experiments were done in duplicate.

[9] = target: T6, Sirt2 (Homo sapiens, UniProt Q8IXJ6); test: Sirt2 inhibition IC50; type: biochemical
T6 construct: made in house
T6 sequence (Q8IXJ6 1-389): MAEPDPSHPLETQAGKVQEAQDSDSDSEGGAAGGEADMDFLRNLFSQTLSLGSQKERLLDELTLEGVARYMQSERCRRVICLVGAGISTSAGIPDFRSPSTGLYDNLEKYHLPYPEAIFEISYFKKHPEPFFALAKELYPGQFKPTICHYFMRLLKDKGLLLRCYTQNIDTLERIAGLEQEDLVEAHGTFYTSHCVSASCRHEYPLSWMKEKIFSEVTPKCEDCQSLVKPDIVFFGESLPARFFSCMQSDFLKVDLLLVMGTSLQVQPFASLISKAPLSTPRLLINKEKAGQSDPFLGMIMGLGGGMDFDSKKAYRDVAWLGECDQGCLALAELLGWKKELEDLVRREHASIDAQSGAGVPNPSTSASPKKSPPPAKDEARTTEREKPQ
Experimental: as §1

[10] = target: T7, Sirt3 (Homo sapiens, UniProt Q9NTG7); test: Sirt3 inhibition IC50; type: biochemical
T7 construct: made in house
T7 sequence (Q9NTG7 1-399): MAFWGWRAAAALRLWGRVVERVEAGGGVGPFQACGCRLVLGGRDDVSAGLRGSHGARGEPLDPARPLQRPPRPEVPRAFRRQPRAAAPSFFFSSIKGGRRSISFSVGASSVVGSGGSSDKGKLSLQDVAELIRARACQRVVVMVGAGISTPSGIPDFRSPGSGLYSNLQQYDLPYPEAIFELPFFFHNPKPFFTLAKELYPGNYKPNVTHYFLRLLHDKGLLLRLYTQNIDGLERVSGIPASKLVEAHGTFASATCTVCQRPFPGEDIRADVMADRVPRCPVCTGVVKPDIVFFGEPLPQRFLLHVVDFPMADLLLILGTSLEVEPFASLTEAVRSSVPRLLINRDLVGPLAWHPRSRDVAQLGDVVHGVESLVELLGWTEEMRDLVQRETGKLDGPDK
Experimental: as §1

[11] = target: T1, Sirt5; test: Screening for Sirt5 inhibitors with ISGASE(SuK)-AMC in the fluorogenic assay; type: biochemical; conditions: compound 30 μM, ISGASE(SuK)-AMC 0.3 mM, Sirt5 1 μM, FIG. 13
Experimental: SirT5 (1 μM) was incubated with ISGASE(SuK)-AMC (SEQ ID NO:11) peptide (0.3 mM), NAD (0.5 mM) in Tris-HCl buffer (pH 7.4, 20 mM) with DTT (1 mM) in 60 μL reactions for 4 hours at 37° C. Then trypsin (1 μg) and CaCl2 (1 mM) were added and the reactions were incubated for 3 hours at 37° C. The reactions were the diluted with 50 μL water. The mixture (100 μL) was transferred to 96 well plate and the fluorescence was recorded by BIO-TEK® Synergy HT plate reader (Optics Position: Top, Sensitivity: 50, Excitation at the wavelength of 360 nm and Emission at the wavelength of 460 nm).
The procedure was the same as described above (Assaying Sirt5 activity on ISGASE(SuK)-AMC in the fluorogenic assay), except that different compounds (30 μM) were included in the reactions. In the desuccinylation step, Sirt5 was added last to initiate the desuccinylation reaction.

[12] = target: T6, Sirt2; test: Secondary screening using Sirt2 and ISGASE(AcK)-AMC fluorogenic assay; type: biochemical; conditions: inhibitor 30 μM, ISGASE(AcK)-AMC 0.3 mM, Sirt2 1 μM, FIG. 15
Experimental: SirT2 (1 μM) was incubated with ISGASE(AcK)-AMC (SEQ ID NO:13) peptide (0.3 mM), inhibitors (30 μM), NAD (0.5 mM) in Tris-HCl buffer (pH 7.4, 20 mM) containing dithiothreitol (DTT, 1 mM) in a 60 μL reaction for 4 hours at 37° C. Then trypsin (1 μg) and CaCl2 (1 mM) were added and the reaction were incubated for 3 hours at 37° C. The reactions were diluted with 50 μL water. The mixture (100 μL) was transferred to 96 well plate and the fluorescence was recorded by BIO-TEK® Synergy HT (Optics Position: Top, Sensitivity: 50, Excitation at the wavelength of 360 nm and Emission at the wavelength of 460 nm).

[13] = target: T2, Sirt1; test: Sirt1 inhibition IC50; type: biochemical; design: made in house
Experimental: as §1

Compound: N#C/C(=C\c1ccc(-c2cc(Cl)ccc2Cl)o1)C(=O)Nc1cccc2ncccc12 [AGK2]
- IC50 [1]: 120 µM
- IC50 [2]: > 40 µM

Compound: KQTAR(SuK)-AMC (KQTARK(Suc)-{AMC})
- fluorescence with Sirt5 [3]: 3600 relative fluorescence unit
- hydrolysis by Sirt5 ([4]; 1 μM Sirt5, 3 hrs): 10%
- hydrolysis by Sirt5 ([4]; 5 μM Sirt5, 3 hrs): 60%

Compound: H3K9 succinyl peptide: synthesized H3K9 succinyl lysine peptide, Sirt5 substrate (KQTARK(Suc)-{AMC})
- kcat [5]: 0.029 ± 0.002 s⁻¹
- Km ([5]; read-out: Km for peptide): 41 ± 11 µM
- Km [6]: > 750 µM
- Km [7]: > 750 µM
- Km [8]: > 750 µM

Compound: C[C@H](NC(=O)[C@H](CCCCN)NC(=O)CNC(=O)CNC(=O)[C@@H](NC(=O)[C@H](CO)NC(=O)[C@H](CCCCNC(=S)CCC(=O)O)NC(=O)[C@H](CCCNC(=N)N)NC(=O)[C@H](C)NC(=O)[C@@H](NC(=O)[C@H](CCC(N)=O)NC(=O)[C@@H](N)CCCCN)[C@@H](C)O)[C@@H](C)O)C(=O)O [H3K9 TSu, KQTAR(TSuK)STGGKA]
- IC50 ([9]; Sirt2 1 μM, 0.3 mM acyl peptide, 0.5 mM NAD, * = no inhibition at 100 μM): > 100 µM
- inhibition of Sirt2 ([9]; at 100 μM concentration): did not inhibit
- IC50 ([10]; Sirt3 1 μM, 0.3 mM acyl peptide, 0.5 mM NAD, * = no inhibition at 100 μM): > 100 µM
- inhibition of Sirt3 ([10]; at 100 μM concentration): did not inhibit
- IC50 [1]: 5 µM
- inhibition of Sirt5 (fluorescence) in fluorogenic assay [11]: close to background level; also recorded: significant inhibition
- fluorescence produced by Sirt2 in fluorogenic assay [12]: did not significantly decrease the fluorescence
- IC50 ([13]; Sirt1 1 μM, 0.3 mM acyl peptide, 0.5 mM NAD, * = no inhibition at 100 μM): > 100 µM
- inhibition of Sirt1 ([13]; at 100 μM concentration): did not inhibit
